As usually defined, the melting point is the temperature of the solid-liquid transition. `CC(C)(C)c1ccc(OC(F)(F)F)c(CN[C@H]2CCCN[C@H]2c2ccccc2)c1.Cl` displayed a melting point of 262 to 264 °C.
On to `CC(C)c1ccc(OCC(F)(F)F)c(CN[C@H]2CCCN[C@H]2c2ccccc2)c1.Cl`, for which the melting point is more than 280 °C.
For `Cl.FC(F)Oc1ccc(OC(F)F)c(CN[C@H]2CCCN[C@H]2c2ccccc2)c1` the value was 238 to 239 °C; for `CC(C)(C)c1ccc(OC(F)F)c(CN[C@H]2CCCN[C@H]2c2ccccc2)c1.Cl`, 263 to 264 °C (dec.); for `CC(C)Oc1ccc(OC(F)(F)F)cc1CN[C@H]1CCCN[C@H]1c1ccccc1.Cl`, 245 to 246 °C (dec.).
Take `CCOc1ccc(OC(F)(F)F)cc1CN[C@H]1CCCN[C@H]1c1ccccc1.Cl`: the melting point is > 275 °C (dec.).
With `CC(C)c1ccc(OC(F)F)c(CN[C@H]2CCCN[C@H]2c2ccccc2)c1.Cl`, the melting point was 245 to 247 °C (dec.).
For `CC(=O)Nc1ccc(OCC(F)(F)F)c(CN[C@H]2CCCN[C@H]2c2ccccc2)c1.Cl` the value was more than 270 °C.
As for `Cc1ccc(OC(F)F)c(CN[C@H]2CCCN[C@H]2c2ccccc2)c1.Cl`, the melting point is more than 275 °C.
Regarding `Cl.FC(F)(F)Oc1ccccc1CN[C@H]1CCCN[C@H]1c1ccccc1`, the melting point is 231 to 233 °C.

Values taken from patent US20030199540A1, “Fluoroalkyoxybenzylamino derivatives of nitrogen containing heterocycles” (priority 1991, published 2003).
